Series [1] can be described thus: Lung and liver curcumin levels after subcutaneous implantation of curcumin matrices. The series is classed as in vivo, Sprague-Dawley rats.
Series [2] is described as follows: Safety and biocompatibility of curcumin implants. Format: in vivo. The conditions noted are these: curcumin doses administered by the implants; at least 3 months. An excerpt: As such, the further study was designed in continuation to above-described experiments (i) to analyze the in vivo release from these implants, (ii) to compare the tissue distribution of curcumin delivered via these implants with curcumin delivered via diet, and finally (iii) to compare the efficacy of curcumin delivered via both routes.

Series [3] is described as follows: Effect of phytochemical agent load on in vitro release. Format: physicochemical. The conditions noted are these: curcumin 2, 5, 20% w/w, GTPs 1, 2.5, 5, 10% w/w. The procedure:
The medium was replaced daily and the amount of curcumin released from each composition per day was measured spectrophotometrically against a standard curve and expressed as μg/day. A similar experiment was also performed to examine the effect of incorporating various amounts of GTPs into a biocompatible polymeric matrix on the in vitro release of the agents.

For series [4] the following is noted: mouse, sc. The procedure:
To assess the coated implants (i.e., where the compositions were in the form of coatings), in vivo studies were also performed. […] All groups of animals were also treated with dibenzo[a,I]pyrene (DBP) via polymeric implants (1-cm, 1.4 mm dia, 5% DBP load) at the same time. Implants were grafted subcutaneously, and animal were euthanized after 3 weeks. […] In both cases, animals were euthanized by CO2 asphyxiation and selected tissues (lung, liver and brain) were collected and stored at −80° C. until processing. Implants were also recovered, dried under vacuum and stored in amber vials under argon at 4° C. until analysis.
The supernatants were diluted with ethanol:DCM (80:20) and their concentrations were measured spectrophotometrically at maximal absorbance and the concentrations were calculated against standard curves of individual compounds.

The nature of series [5]: Toxicity of coated implants (body weight, hematology, liver and kidney function). Format: in vivo, A/J mice. The procedure: To assess the toxicity of the implants, blood was collected separately at the time of euthanasia and hematological parameters were analyzed using whole blood by Cell Dyn 3500 hematology analyzer (Abbott laboratories, Santa Clara, Calif.). Serum was used to analyze the liver and kidney function test. An ion selective electrode was used for various electrolytes analysis and in-built spectrophotometric techniques were used for all other biochemical parameters analysis on automated AU640 Chemistry analyzed (Beckman Coulter, Inc., Brea, Calif.).

The next series relates to CYP3A4. The series can be described thus: CYP3A4 activity in hepatic microsomes. Format: in vivo, ACI rats. As for the experimental part:
(§1) To evaluate the xenobiotic-metabolizing enzymes, liver samples from the animals (approximately 100 mg) were homogenized in 0.25 M sucrose buffer (pH 7.4) at 3000 rpm with Polytron. The homogenate was centrifuged at 3000 g for 20 min at 4° C. to separate the nuclear content, and the supernatant was then collected and again centrifuged at 11,000 g for 20 min at 4° C. to separate the mitochondria. The post-mitochondrial supernatant was then transferred to ultracentrifuge tubes and finally centrifuged at 100,000 g for 1 h at 4° C. to separate the microsomes. The pellet was suspended in 1 ml sucrose buffer, aliquoted and stored at −80° C. until use.

Series [6] is described as follows: Tissue curcuminoid levels after coated implants (UPLC). Format: in vivo, A/J mice. The conditions noted are these: female, A/J, mouse, in vivo. The procedure: Briefly, liver and brain tissues (500 and 400 mg, respectively) from each animal were homogenized in 3 ml PBS (pH 7.4) containing 200 μl of 0.5 M sodium acetate, and extracted with ethyl acetate. After evaporation of the pooled extracts, the residue was reconstituted in 100 μl acetonitrile and analyzed by UPLC using Shimadzu UPLC system (Kyoto, Japan), with a Shim-Pack XR-ODS II reverse phase column (Shimadzu; 150×3.0 mm i.d., 2.2 μm).

The test system of the next series is GSTM. The series can be described thus: GSTM levels in hepatic microsomes (Western blotting). The series is classed as in vivo, ACI rats. The conditions noted are these: implant and dietary routes. The procedure:
as §1
Microsomal proteins were subsequently quantified using a bicinchoninic acid (BCA) method and a BCA™ Protein Assay kit (Thermo Scientific, Rockford, Ill.) and were resolved by sodium dodecyl sulfatepolyacrylamide gel electrophoresis (SDS-PAGE) on a 10% gel. Protein bands were then transferred to polyvinylidene diflouride (PVDF) membrane, which was incubated with 5% non-fat dried milk in Tris-buffered-saline for 1 h at room temperature (25° C.) to block the non-specific binding sites. […] The bands were detected by enhanced chemiluminescence using Pierce® ECL Western-Blotting Substrate (Thermo Scientific, Rockford, Ill.) and quantified using VersaDoc Imaging System (BioRad Laboratories, Hercules, Calif.).
(In general: Immunoblotting shows a protein as a band on a membrane.)

Series [7] in a line: In vivo release of curcumin from PCL-121K:PEG-8K implants (residual content). The arrangement: species or system ACI rats. The source says: The in vivo cumulative release was studied in female Augustus Copenhagen Irish (ACI) rats following an approved protocol from an Institutional Animal Care and Use Committee (IACUC). […] All the animals were provided food and water ad libitum. Sham and curcumin implants were subcutaneously grafted at the back of the rats and were monitored for their diet intake and body weight. Animals were euthanized at different time intervals by asphyxiation to collect blood, liver, brain, local tissues and implants. All the tissues were snap frozen in liquid nitrogen and stored at −80° C. until further analysis.
Initial and residual curcumin content in the implants was also analyzed to determine the cumulative drug release. Implants recovered from animals were dissolved in 5 ml dichloromethane. […] The solution was then diluted suitably (400-fold) with ethanol.
where T1, T2, T3, . . . Tn are different time intervals.

With `COc1cc(/C=C/C(=O)CC(=O)/C=C/c2ccc(O)c(OC)c2)ccc1O` [curcumin], the concentration at 4 days in series [1] (Sprague-Dawley, rat, liver, subcutaneous, 20 % w/w curcumin in two 2-cm polymeric matrices, implants 20% w/w, 4 days) was approximately 40 ng/g. Further, the concentration at 7 days in series [1] (Sprague-Dawley, rat, liver, subcutaneous, 20 % w/w curcumin in two 2-cm polymeric matrices, implants 20% w/w, 7 days) is approximately 5 ng/g. In series [1] (Sprague-Dawley, rat, lung, sc, 20 % w/w curcumin in two 2-cm polymeric matrices), this compound displayed a concentration at 4 days of approximately 15 ng/g. Besides, the “curcumin level in lung tissue” value in series [1] (implants 20% w/w, after 7 days, maintained at 13 and 21 days) was “approximately 5 ng/g”. For the same compound, the “curcumin level in liver tissue” value in series [1] (implants 20% w/w, during the next 30 days) is “about 2.5 ng/g”. For the same compound, the “liver and kidney function” value in series [2] is “did not induce any biochemical changes in liver and kidney function”. Further, the “amount released per day and total amount released versus amount incorporated” value in series [3] is “varied proportionally”. Also, in [4], the “total release in vivo at the end of 3 weeks” value was 19.9%. Besides, the “hematological parameters, liver enzymes, biochemical parameters of kidney function versus sham implant” value in series [5] (3 weeks after grafting) is on record as “No significant differences”. In addition, the body weight result in [5] (s.c. polymeric implants) is “no effect on the body weight”. Moreover, in the series with CYP3A4 (curcumin diet, 12 days), the CYP3A4 activity result is recorded as “reduced to basal levels”. Further, in the series on CYP3A4 (curcumin diet, after 4 days), the “CYP3A4 activity compared to untreated animals” value is reported as “significant higher”. In addition, in the series on CYP3A4 (curcumin diet, day 1), the CYP3A4 activity entry is given as “slightly higher activity”. In the series on CYP3A4 (curcumin implants), the “increase in CYP3A4 activity compared with sham implants” value is recorded as “became significant only after 25 days”. The CYP3A4 activity entry in the series on CYP3A4 (curcumin implants, after 3 months) is “remained consistently upregualated”. This compound also yielded a concentration at 21 days in series [6] of 15 ng/g. The GSTM levels result with GSTM was “not found to get modulated”. The “in vivo burst release on day 1” value in [7] (2-cm implant, 40 mg, s.c.) was “approximately 1800 μg”. Besides, the “curcumin released after 1 day of implantation” value in series [7] (from weight loss studies) was found to be 1.8 mg. Also, in [7] (over 90 days, versus around 900 mg by diet), the “curcumin delivered by both the implants combined” value was found to be 38 mg. In addition, in series [7] (rat, in vivo), the “cumulative in vivo release after 1 month” value was “approximately 30%”, the “in vivo drug release after 3 months” value is reported as “approximately 130 μg/day”, the “in vivo drug release over a period of 1 month” value lay within 300 to 350 µg/day and the “in vivo release on day 4” value is given as “approximately 380 μg”.

Values taken from US8858995B2, “Methods and compositions for controlled delivery of phytochemical agents” (priority 2008, dated 2014).
